Data taken from patent publication US20110014204A1, “Cancer Chemoprevention Strategy Based on Loss of Imprinting of IGF2” (priority 2006, published 2011).
One block for each molecule: values may come before it.

Experiments:
[1] = tested on: aberrant crypt foci (ACF); experiment: Azoxymethane (AOM)-induced aberrant crypt foci (ACF) in LOI(+) and LOI(−) mice, NVP-AEW541 by oral gavage; format: in vivo; conditions: for ACF per colon: AOM intraperitoneally weekly for 3 weeks, sacrificed at 5 weeks, no inhibitor; for AOM-induced ACF formation: AOM plus NVP-AEW541 50 mg/kg oral gavage for 6 weeks; for decrease in ACFs normalized to colon surface area: AOM, treated with the inhibitor
Method: ACF formation in the colon was induced by AOM intraperitoneal injection, and treatment with NVP-AEW541 was by gastric gavage. Each ACF was formed of 1-4 aberrant crypts, and the number of ACF (# of ACF), the number of total aberrant crypts (# of AC), and the average number of aberrant crypts per ACF were measured.
(A) ACF formation in the colon was induced by AOM i.p. injection, and treatment with NVP-AEW541 was by gastric […]. Each ACF was formed of […] aberrant crypts, and the number of ACF (# of ACF), the number of total aberrant crypts (# of AC), and the average number of aberrant crypts per ACF were measured. LOI(+) AOM mice (dark gray bars), LOI(−) AOM mice (black bars), LOI(+) AOM NVP mice (light gray bars), LOI(−) AOM NVP mice (gray bars). (B) The number of ACF and the number of total aberrant crypts (AC) were corrected by colon surface area (cm^2).
7 week old LOI(+) and LOI(−) littermate controls were treated with AOM at 10 mg/kg body weight intraperitoneally once per week for three weeks, and euthanized 5 weeks after the first dose of AOM. The entire colon was resected from mice after laparotomy, flushed with PBS, filled with 10% buffered formalin (Sigma) for one minute, opened longitudinally, fixed flat between filter paper in formalin at 4° C. overnight, rinsed with PBS, and stained with 0.2% methylene blue in saline. The number of ACF per colon and the number of aberrant crypts per ACF were scored under a light microscopy as previously described Bird, Cancer Lett (1987) 37:147-151). NVP-AEW541 (50 mg/kg) was administered by oral gavage, beginning 1 week before AOM treatment, and NVP-AEW541 was administered 7 days/week, twice a day for 5 weekdays and once a day for 2 weekend days, for 6 weeks until sacrifice.
Because of known strain variation in progression of these lesions, littermate controls were treated with and without LOI, in which the dams were heterozygous for a deletion of the H19 differentially methylated region (DMR); inheritance of a maternal allele lacking the DMR leads to activation of the normally silent allele of Igf2 [LOI(+)], while inheritance of a wild type maternal allele leads to normal imprinting [LOI(−)]. Eight LOI(+) and 14 LOI(−) mice were given AOM intraperitoneally weekly for 3 weeks, sacrificed at 5 weeks after the first dose, and ACF were scored by the method of Bird (1987). Histologic examination of colons from AOM-treated mice confirmed the presence of ACF, with hyperproliferative features including increased mitosis, crypt enlargement and crypt disarray (FIG. 12). […] An additional intriguing finding in AOM-treated LOI(+) mice was cystically dilated crypts lined by enlarged cells with atypical nuclei and that contained necrotic debris, that were reminiscent of sessile serrated adenomas (SSAs) seen in the human colon (FIG. 12). SSAs also show crypt dilatation in association with cytologic atypia and are currently of immense interest for their recently recognized association with colorectal cancer (Snover et al., Am J Clin Pathol (2005) 124:380-391). It will thus be of interest to determine whether SSAs are associated with LOI in the human population.
An additional 9 LOI(+) mice and 9 LOI(−) control littermates were similarly exposed to AOM, adding treatment with NVP-AEW541, an IGF1R inhibitor, at a dose of 50 mg/kg by oral gavage daily for 6 weeks (twice daily except daily on weekends). […] Thus, LOI of lgf2 increases the sensitivity to AOM through an IGF1R-dependent mechanism.
Eight LOI(+) and 14 LOI(−) mice were given AOM intraperitoneally weekly for 3 weeks, sacrificed at 5 weeks after the first dose, and ACFs were scored as described (Bird (1987)). Histologic examination of colons from AOM-treated mice confirmed the presence of ACFs, with hyperproliferative features including increased mitosis, crypt enlargement and crypt disarray (FIG. 14A, B). […]

intestinal crypts = experiment: Proliferation-related gene expression in laser capture microdissected intestinal crypts of mice treated with NVP-AEW541 for 3 weeks (real-time PCR); format: in vivo; conditions: mice treated with NVP-AEW541 50 mg/kg oral gavage for 3 weeks; LOI(−) normalized to 1.0
Method: Qunatitative real-time PCR was performed on laser capture microdissected intestinal crypts from 12 LOI(+) and 9 LOI(−) mice. Expression was normalized to β-actin, and the expression level in LOI(+) samples (gray) relative to LOI(−) samples (black) is shown. The bars indicate standard error. […] Analysis was by quantitative real-time PCR of laser capture microdissected crypts from four LOI(+) mice and four LOI(−) mice treated with NVP-AEW541 for 3 weeks. LOI(+) (gray bars), LOI(−) mice (black bars normalized to 1.0).
For validation, LCM was performed on an additional 12 LOI(+) and 9 LOI(−) mice, isolating approximately 800 crypts yielding more than 300 ng of total RNA from each. RNA samples were reverse-transcribed using SUPERSCRIPT II (Invitrogen), and quantified using SYBR Green PCR Core Reagents and an ABI Prism 7700 Sequence Detection System (Applied Biosystems), and normalized to β-actin.
Four LOI(+) and four LOI(−) mice were also treated with NVP-AEW541 to inhibit IGF2 signaling, at a dose of 50 mg/kg by oral gavage daily for 3 weeks (twice daily except daily on weekends). NVP-AEW541 is an ATP-competitive inhibitor of IGF-IR which blocks signaling at the IGF1 receptor, which mediates IGF2 signaling (Garcia-Echeverria et al., Cancer Cell (2004) 5:231-239). […] Thus, LOI-induced changes in proliferation-related gene expression were mediated, at least in part, through IGF2 signaling itself.

IGF1 receptor = target: T1, IGF1 receptor (Mus musculus, UniProt Q60751); experiment: Western blot of IGF2 signaling at the IGF1 receptor in NIH 3T3 cells with varying NVP-AEW541; format: cell-based; conditions: varying concentrations of NVP-AEW541, with or without IGF2
T1 construct: endogenous in cells; host or cells: NIH 3T3 cells
Method: NIH 3T3 cells were passaged every 3 days and maintained with low glucose DMEM plus 10% CBS in 5% CO2. The day prior to transfection cells were trypinsized and seeded into PLL-coated glass bottom Mattek dishes. Cells typically reached about 70% confluence the next day, when they were transfected with eGFP-Akt-PH plasmid with Fugene lipid following the manufacturer's instructions. 8 hours after transfection, cells were starved in 0.2% CBS in low glucose DMEM (with no antibiotics) for at least 12 hours. Western blots were performed with the antibodies shown, and varying concentrations of NVP-AEW541, with or without IGF2.

mouse ES cells = experiment: IGF2 stimulation of mouse ES cells, gene expression by real-time RT-PCR, with or without NVP-AEW541; format: cell-based; conditions: for increase in Cdc6 gene expression: 800 ng/ml mouse Igf2 recombinant protein
Method: (§1) Mouse ES cells were cultured in defined medium and treated with 800 ng/ml mouse lgf2 protein. Gene expression was analyzed by real-time RT-PCR and normalized to β-actin. Shown is the expression level without (black boxes) and with (gray boxes) the IGF1R inhibitor 3 μM NVP-AEW541 (a pyrrolo-2,3d-pyrimidine), normalized to time 0. The bars indicate standard error.
as §1, with “(pink” for “(gray”, “IGF1R R” for “IGF1R”, “NVP-AEW541,” for “NVP-AEW541 (a pyrrolo-2,3d-pyrimidine),”, “bar represents” for “bars indicate”
For IGF2 stimulation, wild type ES cells were isolated as described above, and cultured in ESGRO Complete Basal Medium with 800 ng/ml of mouse Igf2 recombinant protein (StemCell Technologies), with or without 3 μM NVP-AEW541 (Novartis). Cells were washed with PBS twice and RNA was extracted using the RNeasy Kit (QIAGEN) at Oh, 3 h, 6 h, 10 h, and 24 h. Gene expression was assayed by real-time quantitative RT-PCR as described above.
It remained theoretically possible that the observed difference in gene expression simply reflected the over-representation of progenitor cells within the intestinal crypts, rather than a change in cellular gene expression per se. To confirm the latter, mouse embryonic stem (ES) cells were derived and plated in ESGRO Complete Clonal Grade defined medium (Chemicon), which contains no IGF2 and allows growth of undifferentiated ES cells without a feeder layer, which was done with or without 800 ng/ml of mouse Igf2 recombinant protein (StemCell Technologies). Consistent with the microarray experiments, Igf2 induced a 50% and 56% increase in Cdc6 gene expression at 3 and 6 hours, respectively, and 40% and 25% at 10 and 24 hours, respectively (FIG. 3).

Akt/PKB = experiment: Microfluidic chamber single cell immunocytochemistry of Akt/PKB activation (phospho-Akt Ser 473) in LOI(+) and LOI(−) MEF cells; format: cell-based, mouse; conditions: for inhibition of IGF2-triggered Akt activation: 60 min coincubation with 400 ng/ml IGF2 and 3 μM NVP-AEW541
Method: (A) Akt/PKB activation was assayed by single cell immunocytochemistry with an antibody to phosphorylated Akt (Ser 473), in a monolithic 2-layer PDMS chip sealed with a glass coverslip, with defined media delivery controlled by a multiplexed system of valves. Live LOI(+) and LOI(−) MEF cells were stimulated within the microfluidic chips with varying doses of IGF2, with measurements at multiple time points at each IGF2 concentration. […] For each cell type, IGF2 concentration, and time point, at least 200 individual cellular measurements were obtained by digital imaging and analysis. (B) Inhibition of Akt activation by NVP-AEW541. The cells were assayed as in (A) at 60 min after coincubation with 400 ng/ml IGF2 and 3 μM NVP-AEW541 and compared with the unstimulated control. Each bar is based on measurements of >400 cells. Asterisk indicates statistical difference vs LOI(+) control (t test, P<0.001) (C) Single cell analysis of ERK activation by IGF2 in LOI(+) and LOI(−) MEF cells. Erk activation was assayed by single immunocytochemistry within microfluidic chips using an antibody to phosphorylated Erk2 from Upstate (Charlottesville, Va.). LOI(+) cells (gray) and LOI(−) cells (black) were exposed to 400 ng/ml IGF2 for indicated times. […] Error bars represent SD. Standard error bars are completely subsumed by the symbols on this scale. (D) Gene expression levels in mouse embryonic fibroblasts. Quantitative real-time PCR was performed on LOI(+) and LOI(−) MEF cells, with expression normalized to transferring receptor expression. The expression level in LOI(+) samples (black) relative to LOI(−) samples (gray) is shown. The bars indicate standard error.
The immunostaining automation device consists of a monolithic 2-layer PDMS chip sealed with a glass coverslip, fabricated using techniques described previously (Unger et al., Science 288 (2000) 288:113-116). Multiplexing valves were actuated by pressure lines connected to off-device solenoid valves. The chip architecture, performance and validation are all described in a separate manuscript submitted for publication. The glass substrate of the cell culture chamber was coated by introducing 0.1% gelatin (Sigma) into the device for at least 30 minutes, then cells were introduced and allowed to attach for 3 hours. IGF2 (StemCell Technologies) dissolved in cell media was introduced to each chamber at different times so that the end of all stimulation periods coincided. To end the experiment, ice-cold PBS (Invitrogen) was introduced into all chambers followed immediately by 4% paraformaldehyde (Electron Microscopy Systems) for 20 minutes. Cells were permeabilized with 0.1% Triton X-100 (Sigma) for 5 min and blocked with 10% goat serum (Sigma), with PBS washes in between. […] Using custom MATLAB (Mathworks) programs, the images were […], stitched together, and quantified. […] For each cell type and time point, 200-300 cells were analyzed in this manner to ensure statistical significance.
Since both the endogenous IGF2 and IGF2 used in the MEF experiments are susceptible to IGF2 binding protein (IBP)-based inactivation, the dose of an IBP-resistant IGF2 variant was determined producing similar levels of Akt activation. […]

IGF1R [2] = target: T2, IGF1R (Homo sapiens, UniProt P08069); conditions: cited from earlier work
Target sequence in this assay (P08069 31-1367, species assumed): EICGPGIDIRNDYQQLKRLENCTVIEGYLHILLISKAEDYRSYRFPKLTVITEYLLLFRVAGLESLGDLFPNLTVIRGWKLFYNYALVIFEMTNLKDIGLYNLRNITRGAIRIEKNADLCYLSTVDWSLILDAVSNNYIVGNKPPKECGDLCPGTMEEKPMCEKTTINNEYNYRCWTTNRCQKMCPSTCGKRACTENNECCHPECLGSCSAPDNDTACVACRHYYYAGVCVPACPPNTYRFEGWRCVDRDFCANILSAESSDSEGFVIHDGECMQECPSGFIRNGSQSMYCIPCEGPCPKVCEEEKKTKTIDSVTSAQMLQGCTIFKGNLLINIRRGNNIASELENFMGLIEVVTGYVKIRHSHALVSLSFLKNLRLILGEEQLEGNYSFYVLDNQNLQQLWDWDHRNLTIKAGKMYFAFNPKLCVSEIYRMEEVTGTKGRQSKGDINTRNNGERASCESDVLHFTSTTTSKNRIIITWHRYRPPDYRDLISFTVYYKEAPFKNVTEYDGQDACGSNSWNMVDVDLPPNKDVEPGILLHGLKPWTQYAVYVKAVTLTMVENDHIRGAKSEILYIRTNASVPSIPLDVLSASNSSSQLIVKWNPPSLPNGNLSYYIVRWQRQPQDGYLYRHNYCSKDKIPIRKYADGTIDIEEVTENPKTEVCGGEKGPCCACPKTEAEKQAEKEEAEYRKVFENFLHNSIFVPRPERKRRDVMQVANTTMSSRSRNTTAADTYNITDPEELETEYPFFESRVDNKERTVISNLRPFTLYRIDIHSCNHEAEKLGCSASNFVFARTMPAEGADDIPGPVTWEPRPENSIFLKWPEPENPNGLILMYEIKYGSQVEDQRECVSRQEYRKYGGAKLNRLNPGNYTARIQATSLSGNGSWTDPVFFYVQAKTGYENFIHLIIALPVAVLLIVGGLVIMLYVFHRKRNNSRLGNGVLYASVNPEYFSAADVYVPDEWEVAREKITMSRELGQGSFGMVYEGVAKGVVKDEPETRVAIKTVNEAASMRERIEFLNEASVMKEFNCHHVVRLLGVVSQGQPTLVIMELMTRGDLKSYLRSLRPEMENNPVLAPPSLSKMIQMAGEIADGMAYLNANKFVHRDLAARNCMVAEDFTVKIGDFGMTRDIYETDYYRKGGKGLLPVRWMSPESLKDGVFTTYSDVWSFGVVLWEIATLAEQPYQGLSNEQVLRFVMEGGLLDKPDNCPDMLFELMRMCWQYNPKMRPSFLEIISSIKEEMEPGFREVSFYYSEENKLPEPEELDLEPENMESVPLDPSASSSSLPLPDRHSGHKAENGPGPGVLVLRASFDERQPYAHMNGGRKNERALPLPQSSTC

IGF1R [3] = target: T2, IGF1R; conditions: previously estimated; read-out: kD of IGF1R for IGF2; cited from earlier work
Target sequence in this assay (P08069 31-736 limits assumed, species assumed): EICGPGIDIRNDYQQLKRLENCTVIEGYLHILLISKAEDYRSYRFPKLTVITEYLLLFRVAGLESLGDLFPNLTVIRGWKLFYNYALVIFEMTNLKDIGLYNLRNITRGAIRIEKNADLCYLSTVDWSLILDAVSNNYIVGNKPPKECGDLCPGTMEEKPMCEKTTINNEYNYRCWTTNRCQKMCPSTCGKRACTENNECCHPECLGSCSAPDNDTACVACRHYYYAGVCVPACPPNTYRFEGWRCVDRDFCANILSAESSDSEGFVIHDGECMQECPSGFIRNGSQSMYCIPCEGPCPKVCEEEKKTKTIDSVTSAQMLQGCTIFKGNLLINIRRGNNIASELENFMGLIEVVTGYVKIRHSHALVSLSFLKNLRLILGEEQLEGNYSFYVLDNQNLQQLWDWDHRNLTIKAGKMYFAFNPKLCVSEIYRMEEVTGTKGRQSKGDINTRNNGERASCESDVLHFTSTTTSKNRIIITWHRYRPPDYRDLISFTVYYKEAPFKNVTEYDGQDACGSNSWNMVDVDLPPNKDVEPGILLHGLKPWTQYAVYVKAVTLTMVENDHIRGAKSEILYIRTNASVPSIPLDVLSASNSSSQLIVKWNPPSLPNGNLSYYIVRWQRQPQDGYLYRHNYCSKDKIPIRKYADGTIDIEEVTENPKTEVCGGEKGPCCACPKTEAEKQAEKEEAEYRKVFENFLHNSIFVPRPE
Target sequence in this assay (P08069 741-1367 partner limits assumed, species assumed): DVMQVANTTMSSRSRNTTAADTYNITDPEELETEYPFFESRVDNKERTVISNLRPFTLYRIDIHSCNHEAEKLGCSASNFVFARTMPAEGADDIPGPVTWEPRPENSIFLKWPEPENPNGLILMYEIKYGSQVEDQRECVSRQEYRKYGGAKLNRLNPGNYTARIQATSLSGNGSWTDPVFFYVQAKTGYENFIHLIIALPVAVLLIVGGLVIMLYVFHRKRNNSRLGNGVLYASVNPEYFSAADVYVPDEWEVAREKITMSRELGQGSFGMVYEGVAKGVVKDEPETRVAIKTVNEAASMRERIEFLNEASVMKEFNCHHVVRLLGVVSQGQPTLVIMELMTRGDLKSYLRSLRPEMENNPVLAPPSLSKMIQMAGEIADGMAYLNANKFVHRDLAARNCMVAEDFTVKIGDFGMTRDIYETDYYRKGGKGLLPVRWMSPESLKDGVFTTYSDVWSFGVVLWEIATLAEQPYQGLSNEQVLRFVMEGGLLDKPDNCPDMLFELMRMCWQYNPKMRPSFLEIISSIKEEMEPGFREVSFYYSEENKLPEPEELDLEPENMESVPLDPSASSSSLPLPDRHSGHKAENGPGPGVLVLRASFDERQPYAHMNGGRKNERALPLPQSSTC

T1 sequence (Q60751 31-1373): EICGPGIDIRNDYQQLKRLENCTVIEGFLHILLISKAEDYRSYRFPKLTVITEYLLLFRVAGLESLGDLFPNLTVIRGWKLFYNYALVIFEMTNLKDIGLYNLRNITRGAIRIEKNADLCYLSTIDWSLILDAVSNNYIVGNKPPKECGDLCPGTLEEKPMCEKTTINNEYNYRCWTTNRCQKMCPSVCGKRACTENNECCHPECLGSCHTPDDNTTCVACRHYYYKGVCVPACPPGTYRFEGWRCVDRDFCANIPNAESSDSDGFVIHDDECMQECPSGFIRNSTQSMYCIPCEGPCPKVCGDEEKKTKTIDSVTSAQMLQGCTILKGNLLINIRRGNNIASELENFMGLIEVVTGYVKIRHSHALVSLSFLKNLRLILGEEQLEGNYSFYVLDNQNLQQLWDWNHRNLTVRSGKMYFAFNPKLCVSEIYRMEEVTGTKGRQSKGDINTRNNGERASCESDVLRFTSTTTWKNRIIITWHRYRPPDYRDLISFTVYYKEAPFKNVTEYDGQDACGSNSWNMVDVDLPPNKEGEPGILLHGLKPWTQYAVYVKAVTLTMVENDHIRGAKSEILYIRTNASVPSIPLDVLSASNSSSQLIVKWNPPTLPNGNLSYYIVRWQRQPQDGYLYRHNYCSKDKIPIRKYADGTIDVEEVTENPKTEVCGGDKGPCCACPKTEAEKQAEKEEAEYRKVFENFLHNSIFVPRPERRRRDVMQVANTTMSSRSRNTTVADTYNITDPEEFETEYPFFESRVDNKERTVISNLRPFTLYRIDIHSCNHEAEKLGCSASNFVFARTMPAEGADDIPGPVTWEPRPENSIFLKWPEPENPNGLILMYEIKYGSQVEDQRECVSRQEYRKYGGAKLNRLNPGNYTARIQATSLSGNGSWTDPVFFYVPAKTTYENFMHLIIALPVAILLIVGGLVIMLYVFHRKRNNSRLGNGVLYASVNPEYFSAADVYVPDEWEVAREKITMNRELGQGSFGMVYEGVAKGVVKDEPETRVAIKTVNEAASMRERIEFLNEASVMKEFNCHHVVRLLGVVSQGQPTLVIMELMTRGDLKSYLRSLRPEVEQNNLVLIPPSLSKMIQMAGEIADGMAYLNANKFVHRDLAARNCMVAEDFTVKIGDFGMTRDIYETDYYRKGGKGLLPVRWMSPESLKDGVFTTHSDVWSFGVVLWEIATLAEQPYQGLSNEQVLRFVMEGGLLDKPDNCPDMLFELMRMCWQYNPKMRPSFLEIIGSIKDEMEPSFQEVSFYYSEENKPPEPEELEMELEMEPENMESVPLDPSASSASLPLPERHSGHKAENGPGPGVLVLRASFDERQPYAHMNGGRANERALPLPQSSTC

Molecule: CN=[N+](C)[O-] [AOM, azoxymethane]
ACF per colon ([1]; LOI(+) mice): 19.8±2.2 ACF per colon
ACF per colon ([1]; LOI(−) mice): 12.4±0.9 ACF per colon

inhibition of IGF2 signaling at the IGF1 receptor (IGF1 receptor): blocks IGF2 at IGF1R
Molecule: Nc1ncnc2c1c(-c1cccc(OCc3ccccc3)c1)cn2C1CC(CN2CCC2)C1 (stereo not shown) [NVP-AEW541]
Ccne1 expression in LOI(+) crypts relative to LOI(−) crypts (intestinal crypts): 0.57 fold
Cdc6 expression in LOI(+) crypts relative to LOI(−) crypts (intestinal crypts): 0.49 fold
Chaf1a expression in LOI(+) crypts relative to LOI(−) crypts (intestinal crypts): 0.42 fold
Lig1 expression in LOI(+) crypts relative to LOI(−) crypts (intestinal crypts): 0.42 fold
Mcm3 expression in LOI(+) crypts relative to LOI(−) crypts (intestinal crypts): 0.65 fold
Mcm5 expression in LOI(+) crypts relative to LOI(−) crypts (intestinal crypts): 0.48 fold
AOM-induced ACF formation ([1]; LOI(+) mice): 7.8±1.2 ACF per colon
decrease in ACFs normalized to colon surface area ([1]; LOI(+) mice): 56%
AOM-induced ACF formation ([1]; LOI(−) mice): 11.3±1.6 ACF per colon
decrease in ACFs normalized to colon surface area ([1]; LOI(−) mice): no decrease
effect on IGF2-induced increased expression of Cdc6 (mouse ES cells; 800 ng/ml Igf2, 3 μM NVP-AEW541, all time points): completely abrogated
inhibition of IGF2-triggered Akt activation (Akt/PKB; LOI(+) MEF cells): significantly below the baseline
inhibition of IGF2-triggered Akt activation (Akt/PKB; LOI(−) MEF cells): inhibited to the baseline levels
selectivity for IGF1R over the insulin receptor (IGF1R [2]): specifically inhibits IGF1R over the related insulin receptor

Molecule: insulin-like growth factor 2 [IGF2]
Kd (IGF1R [3]): 1 to 10 nM
increase in Cdc6 gene expression (mouse ES cells; 3 hours): 50%
increase in Cdc6 gene expression (mouse ES cells; 6 hours): 56%
increase in Cdc6 gene expression (mouse ES cells; 10 hours): 40%
increase in Cdc6 gene expression (mouse ES cells; 24 hours): 25%
Akt signal at higher IGF2 doses (Akt/PKB; LOI(+) MEF cells, IGF2 doses above 400 ng/ml): progressively more transient and less pronounced
duration of sustained Akt activation (Akt/PKB; LOI(+) MEF cells, lowest IGF2 concentration 400 ng/ml): > 120 min
return of Akt activation to the baseline (Akt/PKB; LOI(−) MEF cells, IGF2 400, 800 and 1600 ng/ml): ≤ 90 min
